Experimental findings from US12590099B2, “Inhibitors of histone deacetylase useful for the treatment or prevention of HIV infection” (Merck Sharp & Dohme LLC, priority 2018, dated 2026) are described below.

Experiment [1] has as its target T1, Recombinant human HDAC3/SMRT heterodimer (Homo sapiens, UniProt O15379).
T1 construct: FLAG (C); made in house
As to the kind of experiment: Human HDAC enzyme inhibitor Fluor-de-Lys assay, HDAC3/SMRT. The experiment is classed as biochemical. As to conditions: recombinant human HDAC3/SMRT, Fluor-de-Lys assay.

Experiment [2] concerns KARN cells (Jurkat 2C4). Nature of the experiment: cells. The experiment is classed as cell-based. As to conditions: luciferase induction, 100% = 2 μM SAHA. The gist of the method:
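Jurkat 2C4 (KARN) cells dosed with test compounds up to 40 μM final, 0.4% DMSO, overnight at 5% CO2; luciferase read by Steady-Glo luminescence after 10 min at room temperature. DMSO set as 0% and 2 μM SAHA as 100% induction; 4-parameter fit of percent activation.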

Where [3] appears, read: Homo sapiens, Jurkat, read-out: Karn EC50 (nM) 0.1% NHS, 0.1% normal human serum.
Where [4] appears, read: Homo sapiens, Jurkat, read-out: Karn EC50 (nM) 5% NHS, 5% normal human serum.
[5] abbreviates: read-out: Karn EC50 (nM) 0.1% NHS, 0.1% normal human serum.
The mark [6] stands for this setting: read-out: Karn EC50 (nM) 5% NHS, 5% normal human serum.

Where two headings read alike, the source gives them in different places. Bounds are passed on as bounds.

T1 sequence (O15379 whole entry): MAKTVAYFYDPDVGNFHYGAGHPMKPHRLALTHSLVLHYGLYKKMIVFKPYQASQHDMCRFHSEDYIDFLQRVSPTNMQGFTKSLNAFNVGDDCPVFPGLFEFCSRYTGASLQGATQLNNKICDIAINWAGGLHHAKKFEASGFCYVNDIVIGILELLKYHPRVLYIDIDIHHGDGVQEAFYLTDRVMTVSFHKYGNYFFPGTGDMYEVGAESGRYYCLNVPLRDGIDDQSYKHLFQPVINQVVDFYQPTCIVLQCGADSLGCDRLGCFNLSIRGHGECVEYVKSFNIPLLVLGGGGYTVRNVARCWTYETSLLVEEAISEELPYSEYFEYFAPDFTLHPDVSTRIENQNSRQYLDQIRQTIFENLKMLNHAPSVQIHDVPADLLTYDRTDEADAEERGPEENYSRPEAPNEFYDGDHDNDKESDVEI
T1 sequence (Q9Y618 1-899 partner limits assumed): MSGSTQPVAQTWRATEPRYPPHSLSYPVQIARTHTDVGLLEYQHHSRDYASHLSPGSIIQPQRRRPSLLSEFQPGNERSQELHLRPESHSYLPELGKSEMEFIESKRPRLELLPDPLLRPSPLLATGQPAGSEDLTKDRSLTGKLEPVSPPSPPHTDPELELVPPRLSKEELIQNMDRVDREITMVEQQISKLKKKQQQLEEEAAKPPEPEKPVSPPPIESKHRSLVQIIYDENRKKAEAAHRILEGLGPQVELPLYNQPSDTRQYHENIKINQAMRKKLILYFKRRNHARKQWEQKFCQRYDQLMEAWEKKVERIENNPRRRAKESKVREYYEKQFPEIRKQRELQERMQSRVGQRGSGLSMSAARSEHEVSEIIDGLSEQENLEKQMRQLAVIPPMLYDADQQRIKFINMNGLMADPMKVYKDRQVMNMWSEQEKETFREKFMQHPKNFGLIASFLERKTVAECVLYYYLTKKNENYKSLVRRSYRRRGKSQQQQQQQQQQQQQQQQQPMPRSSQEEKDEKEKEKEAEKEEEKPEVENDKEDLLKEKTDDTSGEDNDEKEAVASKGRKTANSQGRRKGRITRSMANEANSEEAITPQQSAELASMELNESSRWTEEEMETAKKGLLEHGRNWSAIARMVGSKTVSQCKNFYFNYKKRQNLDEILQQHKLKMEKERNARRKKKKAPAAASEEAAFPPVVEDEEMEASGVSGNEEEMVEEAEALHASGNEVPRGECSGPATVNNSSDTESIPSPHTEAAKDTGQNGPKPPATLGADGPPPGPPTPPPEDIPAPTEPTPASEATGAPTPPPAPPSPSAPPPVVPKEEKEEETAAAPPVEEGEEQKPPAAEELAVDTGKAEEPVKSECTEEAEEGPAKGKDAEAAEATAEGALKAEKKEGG

As for `CCC(=O)CCCCC[C@H](NC(=O)[C@H]1CC[C@]2(CC1)OC(=O)c1ccncc12)c1ncc(-c2ccccc2)[nH]1` [Compound 376], the IC50 in experiment [1] turned out to be 9.02 nM. For the same compound, the EC50 in experiment [2] (setting [3]) is 1860 nM; in experiment [2] (setting [4]), 3680 nM.
Turning to `CCC(=O)CCCCC[C@H](NC(=O)[C@H]1CC12CCN(C)CC2)c1ncc(-c2cc3ccncc3cc2OC)o1` [Compound 405], in experiment [1], the IC50 worked out at 0.7 nM. The EC50 in experiment [2] (setting [3]) came out at 65 nM; in experiment [2] (setting [4]), 57 nM.
On to `CCC(=O)CCCCC[C@H](NC(=O)[C@H]1CC12CCN(CC1CC1)CC2)c1ncc(-c2cc3ccc(C)nc3cc2OC)o1` [Compound 422], for which the IC50 in experiment [1] worked out at 0.08 nM. Besides, the EC50 came to 15 nM in experiment [2] (setting [3]) and 10 nM in experiment [2] (setting [4]).
For `CCC(=O)CCCCC[C@H](NC(=O)C1=NOC2(CCN(C)CC2)C1)c1ncc(-c2ccc(-c3ccccn3)cc2OC)o1` [Compound 391], the IC50 in experiment [1] stood at 18.6 nM. In addition, the EC50 in experiment [2] (setting [3]) was 460 nM; in experiment [2] (setting [4]), 541 nM.
As for `CCC(=O)CCCCC[C@H](NC(=O)C1=NOC2(CCN(C)CC2)C1)c1nnc(-c2cc3ccccc3nc2OC)o1` [Compound 370], the IC50 in experiment [1] stood at 8.87 nM. The EC50 in experiment [2] (setting [3]) is 752 nM; in experiment [2] (setting [4]), 1430 nM.
Take `CCC(=O)CCCCC[C@H](NC(=O)[C@H]1CC[C@@]2(CC1)OC(=O)c1cnccc12)c1ncc(-c2ccccc2)[nH]1` [Compound 373]: in experiment [1], the IC50 was determined as 18.8 nM. Besides, the EC50 was 1650 nM in experiment [2] (setting [3]) and 5340 nM in experiment [2] (setting [4]).
Consider `CCC(=O)CCCCC[C@H](NC(=O)C1CC12CCOCC2)c1ncc(-c2cc3ccc(C)nc3cc2OC)[nH]1` (single isomer, unassigned) [Compound 413], for which the IC50 in experiment [1] was 61.9 nM. Moreover, the EC50 in experiment [2] (setting [5]) was 348 nM; in experiment [2] (setting [6]), 1270 nM.
In the case of `CCC(=O)CCCCC[C@H](NCC1CN(C)C1)c1ncc(-c2cc3ccc(C)nc3cc2OC)o1` [Compound 401, (9S)-9-[5-(7-methoxy-2-methylquinolin-6-yl)-1,3-oxazol-2-yl]-9-{[(1-methylazetidin-3-yl)methyl]amino}nonan-3-one], the IC50 in experiment [1] worked out at 51.3 nM. The EC50 was found to be 1840 nM in experiment [2] (setting [3]) and 2210 nM in experiment [2] (setting [4]).
Consider `CCC(=O)CCCCC[C@H](NC(=O)[C@H]1CC[C@]2(CC1)OC(=O)c1cccnc12)c1ncc(-c2ccccc2)[nH]1` [Compound 378], for which the IC50 in experiment [1] is 7.08 nM. Moreover, the results for the EC50 in experiment [2] (setting [3]) and in experiment [2] (setting [4]) were 1310 nM and 2990 nM, respectively.
With `CCC(=O)CCCCC[C@H](NC(=O)C1=NOC2(CCN(C)CC2)C1)c1ncc(-c2cc3ccc(N(C)C)nc3cc2OC)o1` [Compound 397], the IC50 in experiment [1] worked out at 2.66 nM. Besides, the EC50 in experiment [2] (setting [3]) worked out at 279 nM; in experiment [2] (setting [4]) it was 327 nM.
As to `CCC(=O)CCCCC[C@H](NC(=O)[C@H]1CC12CCN(CC1CC1)CC2)c1ncc(-c2ccc3nc(C)ccc3c2)[nH]1` [Compound 393], the IC50 in experiment [1] was found to be 0.05 nM. In addition, the EC50 in experiment [2] (setting [3]) turned out to be 21 nM; in experiment [2] (setting [4]), 22 nM.
`CCC(=O)CCCCC[C@H](NC(=O)[C@H]1CC[C@@]2(CC1)OC(=O)c1ncccc12)c1ncc(-c2ccccc2)[nH]1` [Compound 374]: the IC50 in experiment [1] was found to be 15.8 nM. Besides, the EC50 turned out to be 2580 nM in experiment [2] (setting [3]) and 5400 nM in experiment [2] (setting [4]).
Turning to `CCC(=O)CCCCC[C@H](NC(=O)[C@H]1CC[C@@]2(CC1)OC(=O)c1cccnc12)c1ncc(-c2ccccc2)[nH]1` [Compound 375], the IC50 in experiment [1] stood at 19.9 nM. For the same compound, the EC50 in experiment [2] (setting [3]) was 1450 nM; in experiment [2] (setting [4]), 9330 nM.
As to `CCC(=O)CCCCC[C@H](NC(=O)C1=NOC2(CCN(C(=O)OC)CC2)C1)c1ncc(-c2ccccc2)[nH]1` [Compound 381], in experiment [1], the IC50 is 26.1 nM. Moreover, the EC50 in experiment [2] (setting [3]) is 2740 nM; in experiment [2] (setting [4]) it was 6410 nM.
Take `CCC(=O)CCCCC[C@H](NC(=O)C1=NOC2(CCN(C(C)C)CC2)C1)c1ncc(-c2ccccc2)[nH]1` [Compound 379]: the IC50 in experiment [1] was determined as 4.77 nM. Moreover, the EC50 in experiment [2] (setting [3]) turned out to be 472 nM; in experiment [2] (setting [4]) it was 771 nM.
With `CCC(=O)CCCCC[C@H](NCc1ccncc1)c1ncc(-c2cc3ccc(C)nc3cc2OC)[nH]1` [Compound 404], the IC50 in experiment [1] amounted to 501 nM. The EC50 in experiment [2] (setting [3]) and in experiment [2] (setting [4]) was above 40000 nM in each case.
As for `CCC(=O)CCCCC[C@H](NC(=O)C1=NOC2(CCN(C)CC2)C1)c1ncc(-c2cc3ccc(=O)n(C)c3cc2F)o1` [Compound 386], in experiment [1], the IC50 came out at 12.4 nM. For the same compound, the EC50 worked out at 934 nM in experiment [2] (setting [3]) and 1060 nM in experiment [2] (setting [4]).
The like results for `CCC(=O)CCCCC[C@H](NC(=O)C1=NOC2(CCN(C)CC2)C1)c1ncc(-c2cc3ccncc3cc2OC)o1` [Compound 415] were, in that order, 7.82 nM, 105 nM and 118 nM.
Take `CCC(=O)CCCCC[C@H](NC(=O)C1=NOC2(CCN(C)CC2)C1)c1ncc(-c2ccccc2)[nH]1` [Compound 382]: in experiment [1], the IC50 amounted to 8.02 nM. Besides, the EC50 in experiment [2] (setting [3]) was determined as 665 nM; in experiment [2] (setting [4]) it was 1070 nM.
For `CCC(=O)CCCCC[C@H](NC(=O)[C@H]1CC12CCN(C)CC2)c1ncc(-c2cc3ocnc3cc2F)o1` [Compound 389], the IC50 in experiment [1] was 30.2 nM. The EC50 amounted to 1120 nM in experiment [2] (setting [3]) and 1550 nM in experiment [2] (setting [4]).
As to `CCN[C@@H](CCCCCC(=O)CC)c1ncc(-c2cc3ccc(C)nc3cc2OC)[nH]1` [Compound 403], in experiment [1], the IC50 amounted to 283 nM. The EC50 in experiment [2] (setting [3]) amounted to 5340 nM; in experiment [2] (setting [4]), 5600 nM.
In the case of `CCC(=O)CCCCC[C@H](NC(=O)C1=NOC2(CCN(C(C)C)CC2)C1)c1nnc(-c2cc3ccccc3nc2OC)o1` [Compound 369], the EC50 in experiment [2] (setting [3]) worked out at 804 nM; in experiment [2] (setting [4]), 1680 nM.
In the same order, the values of `CCC(=O)CCCCC[C@H](NC(=O)C1=NOC2(CCN(S(C)(=O)=O)CC2)C1)c1nnc(-c2cc3ccccc3nc2OC)o1` [Compound 371] are 5000 nM and 6040 nM.
Regarding `CCC(=O)CCCCC[C@H](NC(=O)[C@H]1CC12CCN(C)CC2)c1ncc(-c2cc3ocnc3cc2OC)o1` [Compound 408], in experiment [1], the IC50 came to 7.37 nM. Besides, the 50% effective concentration (EC50) in experiment [2] (setting [3]) turned out to be 250 nM; in experiment [2] (setting [4]) it was 593 nM.
Consider `CCC(=O)CCCCC[C@H](NC(=O)[C@H]1CC[C@]2(CC1)OC(=O)c1cccnc12)c1nnc(-c2cc3ccccc3nc2OC)o1` [Compound 368], for which the IC50 in experiment [1] was 20.6 nM. The EC50 came to 1570 nM in experiment [2] (setting [3]) and 5240 nM in experiment [2] (setting [4]).
`CCC(=O)CCCCC[C@H](NC(=O)[C@H]1CC12CCN(CC1CC1)CC2)c1ncc(-c2cc3ccc(=O)n(C)c3cc2F)o1` [Compound 400]: the results for the EC50 in experiment [2] (setting [3]) and in experiment [2] (setting [4]) were 577 nM and 557 nM, respectively.
For the compound `CCC(=O)CCCCC[C@H](NC(=O)[C@H]1CC12CCN(C)CC2)c1ncc(-c2cc3ccc(N(C)C)nc3cc2OC)o1` [Compound 406], the IC50 in experiment [1] came to 1.05 nM. Moreover, the EC50 in experiment [2] (setting [3]) was determined as 280 nM; in experiment [2] (setting [4]), 279 nM.
In the same order, the values of `CCCC(=O)CCCCC[C@H](NC(=O)[C@H]1CC12CCN(CC1CC1)CC2)c1ncc(-c2cc3ccc(C)nc3cc2OC)[nH]1` [Compound 416] are 1.11 nM, 11 nM and 15 nM.
In the case of `CCC(=O)CCCCC[C@H](NC(=O)C1CC12CCOCC2)c1ncc(-c2cc3ccc(C)nc3cc2OC)o1` (single isomer, unassigned) [Compound 410], the EC50 came out at 663 nM in experiment [2] (setting [5]) and 1390 nM in experiment [2] (setting [6]).
On to `CCC(=O)CCCCC[C@H](NC(=O)C1CC12CCOCC2)c1ncc(-c2cc3ccc(C)nc3cc2OC)o1` (single isomer, unassigned) [Compound 409], for which the EC50 came out at 811 nM in experiment [2] (setting [3]) and 1860 nM in experiment [2] (setting [4]).
In the case of `CCC(=O)CCCCC[C@H](NC(=O)[C@H]1CC[C@@]2(CC1)OC(=O)c1ccncc12)c1ncc(-c2ccccc2)[nH]1` [Compound 372], the IC50 in experiment [1] was 14.1 nM. The EC50 worked out at 2650 nM in experiment [2] (setting [3]) and 5250 nM in experiment [2] (setting [4]).
Regarding `CCC(=O)CCCCC[C@H](NC(=O)C1=NOC2(CCN(S(C)(=O)=O)CC2)C1)c1ncc(-c2ccccc2)[nH]1` [Compound 383], in experiment [1], the IC50 amounted to 16.7 nM. Further, the EC50 in experiment [2] (setting [3]) stood at 2620 nM; in experiment [2] (setting [4]), 3260 nM.
Take `CCC(=O)CCCCCC(CC)(NC(=O)[C@H]1CC12CCN(CC1CC1)CC2)c1nc(-c2cc3ccc(C)nc3cc2OC)c[nH]1` (stereo partly drawn) [Compound 420, (1S)-6-(cyclopropylmethyl)-N-{3-[4-(7-methoxy-2-methylquinolin-6-yl)-1H-imidazol-2-yl]-9-oxoundecan-3-yl}-6-azaspiro[2.5]octane-1-carboxamide]: the IC50 in experiment [1] turned out to be 328 nM. Besides, the EC50 in experiment [2] (setting [3]) is 11800 nM; in experiment [2] (setting [4]), above 40000 nM.
Regarding `CCC(=O)CCCCC[C@H](NC(=O)[C@H]1CC[C@@]2(CC1)OC(=O)c1cccnc12)c1nnc(-c2cc3ccccc3nc2OC)o1` [Compound 366], the IC50 in experiment [1] was 37.3 nM. Also, the EC50 in experiment [2] (setting [3]) is 1500 nM; in experiment [2] (setting [4]), 5360 nM.
`CCC(=O)CCCCC[C@H](NC(=O)C1CC12CCOCC2)c1ncc(-c2cc3ccc(C)nc3cc2OC)[nH]1` (single isomer, unassigned) [Compound 407]: the IC50 in experiment [1] was determined as 3.68 nM. In addition, the EC50 in experiment [2] (setting [3]) was determined as 336 nM; in experiment [2] (setting [4]), 977 nM.
In the same order, the values of `CCCC(=O)CCCCC[C@H](N)c1ncc(-c2cc3ccc(C)nc3cc2OC)[nH]1` [Compound A30] are 95.6 nM, 1490 nM and 5610 nM.
For the compound `CCC(=O)CCCCC[C@H](NC(=O)C1=NOC2(CCN(C(C)=O)CC2)C1)c1ncc(-c2ccccc2)[nH]1` [Compound 380], in experiment [1], the IC50 amounted to 8.92 nM. Moreover, the EC50 came out at 1920 nM in experiment [2] (setting [3]) and 2410 nM in experiment [2] (setting [4]).
